Measurements published in the supplement of paper PMC11061612.

Key:
[1] = test system: D-283MED (Other Solid Carcinomas); test: Bliss excess, mean over the matrix (fraction); higher = more synergy
Outline: (§1)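 Bliss excess equals the observed combination effect minus the expected value EA + EB − EA·EB, where EA and EB are the effects of each agent alone. Combination Emax is the second-highest inhibition within the matrix. Inhibition was scaled from CellTiter-Glo 2.0 luminescence, with 0 set by vehicle wells and 1 by blank wells, after 72 hours of two-drug dosing of cells plated in 1536-well plates.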

D-392MG (Glioblastoma) [2] = test: as above
Outline: as §1

[3] = test system: DOK (Oral Cavity Carcinoma); test: as above
Outline: as §1

EW-22 (Ewing's Sarcoma) = test: as above
Outline: as §1

HCC38 (Breast Carcinoma) = test: as above
Outline: as §1

[4] = test system: HLE (Hepatocellular Carcinoma); test: as above
Outline: as §1

[5] = test system: HOP-92 (Non-Small Cell Lung Carcinoma); test: as above
Outline: as §1

HuO9 (Osteosarcoma) = test: as above
Outline: as §1

MCF7 (Breast Carcinoma) = test: as above
Outline: as §1

[6] = test system: P31-FUJ (Acute Myeloid Leukemia); test: as above
Outline: as §1

[7] = test system: SK-UT-1 (Other Solid Carcinomas); test: as above
Outline: as §1

[8] = test system: SW948 (Colorectal Carcinoma); test: as above
Outline: as §1

[9] = test system: U-118-MG (Low Grade Glioma); test: as above
Outline: as §1

[10] = test system: BICR78 (Oral Cavity Carcinoma); test: combination Emax (second highest fraction inhibited in the dose matrix, 72 h); higher = more inhibition; extreme values may be limits of the assay
Outline: as §1

D-392MG (Glioblastoma) [11] = test: as above
Outline: as §1

[12] = test system: HOP-92 (Non-Small Cell Lung Carcinoma); test: as above
Outline: as §1

[13] = test system: NCI-H1688 (Small Cell Lung Carcinoma); test: as above
Outline: as §1

[14] = test system: P31-FUJ (Acute Myeloid Leukemia); test: as above
Outline: as §1

[15] = test system: SK-UT-1 (Other Solid Carcinomas); test: as above
Outline: as §1

[16] = test system: SW48 (Colorectal Carcinoma); test: Bliss excess, mean over the matrix (fraction); higher = more synergy
Outline: as §1

Structure (SMILES)	Bliss excess [1]	Bliss excess (D-392MG (Glioblastoma) [2])	Bliss excess [3]	Bliss excess (EW-22 (Ewing's Sarcoma))	Bliss excess (HCC38 (Breast Carcinoma))	Bliss excess [4]	Bliss excess [5]	Bliss excess (HuO9 (Osteosarcoma))	Bliss excess (MCF7 (Breast Carcinoma))	Bliss excess [6]	Bliss excess [7]	Bliss excess [8]	Bliss excess [9]	combination Emax [10]	combination Emax (D-392MG (Glioblastoma) [11])	combination Emax [12]	combination Emax [13]	combination Emax [14]	combination Emax [15]	Bliss excess [16]
CN(C)CCCOc1ccc(-c2ccc3ncc4c(c3c2)n(C2CCOCC2)c(=O)n4C)cn1 [AZD0156] + O=C(c1cc(Cc2n[nH]c(=O)c3ccccc23)ccc1F)N1CCN(C(=O)C2CC2)CC1 [Olaparib] (first compound max 3 µM, partner max 3 µM)	0.115	-0.0585	0.0549	0.217	0.0454	-0.0129	0.0111	0.0888	0.0509	0.0759	0.0429	-0.0231	0.0122	0.129	0.131	0.256	0.206	0.368	0.257	
C=CCn1c(=O)c2cnc(Nc3ccc(N4CCN(C)CC4)cc3)nc2n1-c1cccc(C(C)(C)O)n1 [AZD1775] + C1CN(CCC1(C(=O)N[C@@H](CCO)C2=CC=C(C=C2)Cl)N)C3=NC=NC4=C3C=CN4 [Capivasertib] (first compound max 3 µM, partner max 3 µM)	-0.0189	0.0315	0.0014	0.0403	-0.105	-0.0734	0.0152	-0.0495	0.0075	-0.0276	-0.0037	-0.003	-0.0726	0.441	0.42	0.551	0.687	0.999	0.817	
CN(CCO)CC[C@H](CSc1ccccc1)Nc1ccc(S(=O)(=O)NC(=O)c2ccc(N3CCC([C@@H](O)c4ccccc4-c4ccc(Cl)cc4)CC3)cc2)cc1S(=O)(=O)C(F)(F)F [AZD4320] + C1CN(CCC1(C(=O)N[C@@H](CCO)C2=CC=C(C=C2)Cl)N)C3=NC=NC4=C3C=CN4 [Capivasertib] (first compound max 1 µM, 7x7, partner max 3 µM)	0.0139	-0.0649	-0.0554	-0.0341	0.0057	-0.126	-0.038	0.0355	-0.0383	0.0452	-0.0006	-0.0497	-0.0546	0.244	0.189	0.891	0.575	0.869	0.226	0.0148
CN(CCO)CC[C@H](CSc1ccccc1)Nc1ccc(S(=O)(=O)NC(=O)c2ccc(N3CCC([C@@H](O)c4ccccc4-c4ccc(Cl)cc4)CC3)cc2)cc1S(=O)(=O)C(F)(F)F [AZD4320] + C=CCn1c(=O)c2cnc(Nc3ccc(N4CCN(C)CC4)cc3)nc2n1-c1cccc(C(C)(C)O)n1 [AZD1775] (first compound max 1 µM, partner max 1 µM)	-0.0122	0.0474	-0.0273	0.0897	0.0723	0.0906	0.101	0.0484	-0.0008	0.113	0.0431	0.0744	0.0108	0.304	0.763	0.974	0.87	0.983	0.693	0.038
CN(CCO)CC[C@H](CSc1ccccc1)Nc1ccc(S(=O)(=O)NC(=O)c2ccc(N3CCC([C@@H](O)c4ccccc4-c4ccc(Cl)cc4)CC3)cc2)cc1S(=O)(=O)C(F)(F)F [AZD4320] + CCN(CCO)CCCOc1ccc2c(Nc3cc(CC(=O)Nc4cccc(F)c4)[nH]n3)ncnc2c1 [AZD2811] (first compound max 1 µM, 7x7, partner max 1 µM)	0.0522	0.114	0.0043	0.0467	0.044	0.0338	0.0573	0.0376	0.0189	-0.0531	0.0705	-0.0196	-0.0148	0.313	0.729	0.968	0.723	0.954	0.414	-0.0226
CN(CCO)CC[C@H](CSc1ccccc1)Nc1ccc(S(=O)(=O)NC(=O)c2ccc(N3CCC([C@@H](O)c4ccccc4-c4ccc(Cl)cc4)CC3)cc2)cc1S(=O)(=O)C(F)(F)F [AZD4320] + CN(C)CCCOc1ccc(-c2ccc3ncc4c(c3c2)n(C2CCOCC2)c(=O)n4C)cn1 [AZD0156] (first compound max 1 µM, 7x7, partner max 1 µM)	-0.0353	-0.044	-0.0332	0.0228	-0.0504	-0.0209	-0.0014	0.0143	-0.051	0.0814	-0.0284	-0.0566	-0.0537	0.134	0.218	0.899	0.487	0.814	0.0694	-0.0545
CN(CCO)CC[C@H](CSc1ccccc1)Nc1ccc(S(=O)(=O)NC(=O)c2ccc(N3CCC([C@@H](O)c4ccccc4-c4ccc(Cl)cc4)CC3)cc2)cc1S(=O)(=O)C(F)(F)F [AZD4320] + C[C@@H]1COCCN1C2=NC(=NC(=C2)C3(CC3)[S@](=N)(=O)C)C4=C5C=CNC5=NC=C4 [AZD6738] (first compound max 1 µM, 7x7, partner max 10 µM)	0.0139	-0.0094	-0.0269	0.0762	0.0306	0.0036	0.0076	-0.0242	-0.0145	-0.0083	0.0253	-0.0873	-0.0285	0.774	0.792	0.976	0.728	0.994	0.919	0.0245
CN(CCO)CC[C@H](CSc1ccccc1)Nc1ccc(S(=O)(=O)NC(=O)c2ccc(N3CCC([C@@H](O)c4ccccc4-c4ccc(Cl)cc4)CC3)cc2)cc1S(=O)(=O)C(F)(F)F [AZD4320] + C[C@@H](Nc1cc(F)cc(F)c1)c1cc(C(=O)N(C)C)cc2c(=O)cc(N3CCOCC3)oc12 [AZD8186] (first compound max 1 µM, 7x7, partner max 3 µM)	0.0429	-0.104	-0.0195	-0.0261	-0.0028	-0.0428	0.0329	0.0515	0.0057	0.019	0.002	-0.101	0.0018	0.446	0.649	0.967	0.484	0.543	0.273	-0.0048
CN(CCO)CC[C@H](CSc1ccccc1)Nc1ccc(S(=O)(=O)NC(=O)c2ccc(N3CCC([C@@H](O)c4ccccc4-c4ccc(Cl)cc4)CC3)cc2)cc1S(=O)(=O)C(F)(F)F [AZD4320] + Cn1cnc2c(F)c(Nc3ccc(Br)cc3Cl)c(C(=O)NOCCO)cc21 [Selumetinib] (first compound max 1 µM, 7x7, partner max 3 µM)	0.0172	-0.0474	-0.0003	0.0011	-0.0375	-0.0142	-0.0341	0.041	0.0377	0.125		-0.0332	-0.0149	0.508	0.483	0.963	0.468	0.901	0.345	-0.0159
Cc1c2c(nn1C)CSCc1cc(n(C)n1)CSc1cc(c3ccccc3c1)OCCCc1c(C(=O)O)n(C)c3c-2c(Cl)ccc13 [AZD5991] + C[C@@H]1COCCN1C2=NC(=NC(=C2)C3(CC3)[S@](=N)(=O)C)C4=C5C=CNC5=NC=C4 [AZD6738] (first compound max 1 µM, 7x7, partner max 10 µM)	-0.0109	-0.0053		0.0236	0.0528	0.0075	0.0003	0.0259	0.0286	-0.0033	-0.0115	0.0387	0.0187	0.612	0.427	0.723	0.47	0.998	0.801	-0.0259
Cc1cc2ncnn2cc1Nc1ncc2c(n1)n(C1CCOCC1)c(=O)n2C [AZD7648] + O=C(c1cc(Cc2n[nH]c(=O)c3ccccc23)ccc1F)N1CCN(C(=O)C2CC2)CC1 [Olaparib] (first compound max 10 µM, 7x7, partner max 10 µM)	-0.0398	-0.0456	-0.0334	-0.0664	-0.0481	-0.036	-0.0144	0.0105	-0.0625	-0.0511	-0.0331		-0.0441	0.182	0.144	0.292	0.135	0.34	0.158	-0.031
